11 compounds from ChEMBL document CHEMBL1799953, “Backbone cyclic peptide inhibitors of protein kinase B (PKB/Akt)” (J Med Chem, 2011) can be followed below.

Where a SMILES comes first, the peptide text is derived from it. [ ]: non-standard residue; d: D form. Gly(N-(CH2)6NH2) = NCCCCCCNCC(=O)O; Gly(N-2-aminoethyl) = NCCNCC(=O)O; Gly(N(CH2)3NH2) = NCCCNCC(=O)O; hLeu = CC(C)CC[C@H](N)C(=O)O; Nva = CCC[C@H](N)C(=O)O; Dap = NC[C@H](N)C(=O)O; Nlys = NCCCCNCC(=O)O

Sequence of RAC-alpha serine/threonine-protein kinase (P31749 whole entry): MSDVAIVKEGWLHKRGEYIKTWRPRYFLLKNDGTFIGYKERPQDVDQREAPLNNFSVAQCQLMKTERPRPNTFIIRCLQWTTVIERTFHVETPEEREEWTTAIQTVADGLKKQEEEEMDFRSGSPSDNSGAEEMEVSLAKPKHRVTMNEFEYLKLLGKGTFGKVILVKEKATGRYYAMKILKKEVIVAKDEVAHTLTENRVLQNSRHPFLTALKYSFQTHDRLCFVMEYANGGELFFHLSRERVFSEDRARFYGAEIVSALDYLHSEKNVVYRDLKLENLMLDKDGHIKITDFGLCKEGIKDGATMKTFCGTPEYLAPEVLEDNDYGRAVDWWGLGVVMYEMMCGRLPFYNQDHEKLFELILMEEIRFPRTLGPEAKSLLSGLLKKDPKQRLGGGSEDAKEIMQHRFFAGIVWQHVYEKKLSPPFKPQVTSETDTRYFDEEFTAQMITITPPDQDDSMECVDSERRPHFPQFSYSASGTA

This assay has as its target RAC-alpha serine/threonine-protein kinase (Homo sapiens, UniProt P31749). The assay is described as follows: Inhibition of Akt using RPRTSSF peptide and [gamma32]ATP at 0.625 uM by cell-free radioactive assay relative to control.
As to `CCC[C@H](NC(=O)[C@H](CCCNC(=N)N)NC(=O)[C@@H]1CCCN1C(=O)[C@@H](N)CCCNC(=N)N)C(=O)N[C@@H](Cc1ccc(O)cc1)C(=O)N[C@@H](CN)C(=O)N[C@@H](CCC(C)C)C(N)=O`, the inhibition (as a rule, how much of the control response was suppressed) was 36%.
The result for `CCC[C@H](NC(=O)[C@H](CCCNC(=N)N)NC(=O)CN(CCCN)C(=O)[C@@H](N)CCCNC(=N)N)C(=O)N[C@@H](Cc1ccc(O)cc1)C(=O)N[C@@H](CN)C(=O)N[C@@H](CCC(C)C)C(=O)N(CCN)CC(N)=O` (H-R[Gly(N(CH2)3NH2)]R[Nva]Y[Dap][hLeu][Gly(N-2-aminoethyl)]-NH2) reads 76%; that for `CCC[C@H](NC(=O)[C@H](CCCNC(=N)N)NC(=O)CN(CCCN)C(=O)[C@@H](N)CCCNC(=N)N)C(=O)N[C@@H](Cc1ccc(O)cc1)C(=O)N[C@@H](CN)C(=O)N[C@@H](CCC(C)C)C(=O)N(CCCCCCN)CC(N)=O` (H-R[Gly(N(CH2)3NH2)]R[Nva]Y[Dap][hLeu][Gly(N-(CH2)6NH2)]-NH2), 51%; that for `CCC[C@H](NC(=O)[C@H](CCCNC(=N)N)NC(=O)CN(CCN)C(=O)[C@@H](N)CCCNC(=N)N)C(=O)N[C@@H](Cc1ccc(O)cc1)C(=O)N[C@@H](CN)C(=O)N[C@@H](CCC(C)C)C(=O)N(CCCN)CC(N)=O` (H-R[Gly(N-2-aminoethyl)]R[Nva]Y[Dap][hLeu][Gly(N(CH2)3NH2)]-NH2), 76%.
Consider `CCC[C@H](NC(=O)[C@H](CCCNC(=N)N)NC(=O)CN(CCN)C(=O)[C@@H](N)CCCNC(=N)N)C(=O)N[C@@H](Cc1ccc(O)cc1)C(=O)N[C@@H](CN)C(=O)N[C@@H](CCC(C)C)C(=O)N(CCN)CC(N)=O` (H-R[Gly(N-2-aminoethyl)]R[Nva]Y[Dap][hLeu][Gly(N-2-aminoethyl)]-NH2), for which the inhibition is 57%.
Under `CCC[C@H](NC(=O)[C@H](CCCNC(=N)N)NC(=O)CN(CCN)C(=O)[C@@H](N)CCCNC(=N)N)C(=O)N[C@@H](Cc1ccc(O)cc1)C(=O)N[C@@H](CN)C(=O)N[C@@H](CCC(C)C)C(=O)N(CCCCCCN)CC(N)=O` (H-R[Gly(N-2-aminoethyl)]R[Nva]Y[Dap][hLeu][Gly(N-(CH2)6NH2)]-NH2) stands 42%; under `CCC[C@H](NC(=O)[C@H](CCCNC(=N)N)NC(=O)CN(CCN)C(=O)[C@@H](N)CCCNC(=N)N)C(=O)N[C@@H](Cc1ccc(O)cc1)C(=O)N[C@@H](CN)C(=O)N[C@@H](CCC(C)C)C(=O)N(CCCCN)CC(N)=O` (H-R[Gly(N-2-aminoethyl)]R[Nva]Y[Dap][hLeu][Nlys]-NH2), 84%.
Under `CCC[C@H](NC(=O)[C@H](CCCNC(=N)N)NC(=O)CN(CCCCCCN)C(=O)[C@@H](N)CCCNC(=N)N)C(=O)N[C@@H](Cc1ccc(O)cc1)C(=O)N[C@@H](CN)C(=O)N[C@@H](CCC(C)C)C(=O)N(CCN)CC(N)=O` (H-R[Gly(N-(CH2)6NH2)]R[Nva]Y[Dap][hLeu][Gly(N-2-aminoethyl)]-NH2) stands 83%.
The result for `CCC[C@H](NC(=O)[C@H](CCCNC(=N)N)NC(=O)CN(CCCCCCN)C(=O)[C@@H](N)CCCNC(=N)N)C(=O)N[C@@H](Cc1ccc(O)cc1)C(=O)N[C@@H](CN)C(=O)N[C@@H](CCC(C)C)C(=O)N(CCCCCCN)CC(N)=O` (H-R[Gly(N-(CH2)6NH2)]R[Nva]Y[Dap][hLeu][Gly(N-(CH2)6NH2)]-NH2) reads 57%; that for `CCC[C@H](NC(=O)[C@H](CCCNC(=N)N)NC(=O)CN(CCCCCCN)C(=O)[C@@H](N)CCCNC(=N)N)C(=O)N[C@@H](Cc1ccc(O)cc1)C(=O)N[C@@H](CN)C(=O)N[C@@H](CCC(C)C)C(=O)N(CCCCN)CC(N)=O` (H-R[Gly(N-(CH2)6NH2)]R[Nva]Y[Dap][hLeu][Nlys]-NH2), 88%.
Consider `CCC[C@H](NC(=O)[C@H](CCCNC(=N)N)NC(=O)CN(CCCCN)C(=O)[C@@H](N)CCCNC(=N)N)C(=O)N[C@@H](Cc1ccc(O)cc1)C(=O)N[C@@H](CN)C(=O)N[C@@H](CCC(C)C)C(=O)N(CCN)CC(N)=O` (H-R[Nlys]R[Nva]Y[Dap][hLeu][Gly(N-2-aminoethyl)]-NH2), for which the inhibition was 84%.
